In the supplement of paper PMC11208160:

test: recombinant UMI read abundance after kanamycin selection (control-corrected) (log10(CPM+1)); higher = more efficient recombination; extreme values may be limits of the assay; sequences stand for … in AGTGCAGAGAAAATCGGCCAGTTTTCTCTGCCTGCAGTCCGCATGCCGTGGGACCCCTTGGGTTCTAACCTGTTGCCTAGATTTATGCAGCGGACTGCCTTTCTCCCAAAGTGATAAACCGG…AGGTTGGTTTCACT; site = the 11-nt donor
Procedure, shortened: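 The measure is log10(CPM+1) for recombinant UMIs. These were PCR-amplified across the donor–target junction and sequenced after Escherichia coli carrying a donor and donor-binding-loop pair library and a target plasmid with T7-inducible IS621 bridge recombinase was plated on IPTG (0.07 mM) plus kanamycin or unselected. CPM were averaged over two replicates and scaled by control-derived factors.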
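Note: IS621 bridge recombinase in Escherichia coli cells against a fixed T5 target plasmid.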

| Sequence | recombinant UMI read abundance (log10) |
| --- | --- |
| TTTGCAGCATGGACCGGTTTTCCCGGTAATCCGTATTTGCT (site TTTGCTGCTAG) | 0.00602 |
| ATCCCAGCATGGACCGGTTTTCCCGGTAATCCGTATTTGAG (site ATCCTAGCTCT) | 0 |
| CGGAATCCATGGACCGGTTTTCCCGGTAATCCGTATTTGTT (site CGAATTCCTAA) | 0 |
| GGATAGACATGGACCGGTTTTCCCGGTAATCCGTATTTGCA (site GGATAGACTCG) | 0.831 |
| TGCGTGACATGGACCGGTTTTCCCGGTAATCCGTATTTGAT (site TGCGTGACTAT) | 1.94 |
| GCTACTGCATGGACCGGTTTTCCCGGTAATCCGTATTTGCC (site GCAACTGCTGG) | 0 |
| ACGAAAACATGGACCGGTTTTCCCGGTAATCCGTATTTGCT (site GCGAAAACTAG) | 0.581 |
| ATCGTATCATGGACCGGTTTTCCCGGTAATCCGTATTTGTC (site ATCGTATCTGA) | 3.35 |
| ATTTATACATGGACCGGTTTTCCCGGTAATCCGTATTTGAC (site ATCTATACTGT) | 1.22 |
| ACAGGGTCATGGACCGGTTTTCCCGGTAATCCGTATTTGCA (site ACAGTATCTTG) | 1.89 |
| AACCGTCCATGGACCGGTTTTCCCGGTAATCCGTATTTGAT (site AACCGTCCTAA) | 0.0165 |
| GTGATGCCATGGACCGGTTTTCCCGGTAATCCGTATTTGAT (site GTGATGCCTAT) | 1.41 |
| CCCCTCACATGGACCGGTTTTCCCGGTAATCCGTATTTGTA (site CCCCGCACTTA) | 0.0202 |
| GCCACGCCATGGACCGGTTTTCCCGGTAATCCGTATTTGCA (site GCCACGCCTTG) | 1.36 |
| GGTATGTCATGGACCGGTTTTCCCGGTAATCCGTATTTGTT (site GGTAAGTCTAA) | 0.00575 |
| TCGGACCCATGGACCGGTTTTCCCGGTAATCCGTATTTGGG (site TCGGACCCTCC) | 0.036 |
| TAGGGATCATGGACCGGTTTTCCCGGTAATCCGTATTTGCG (site TAGGAATCTCG) | 2.07 |
| AATAGGACATGGACCGGTTTTCCCGGTAATCCGTATTTGCG (site AATAGGACTCG) | 1.97 |
| CCAGGTTCATGGACCGGTTTTCCCGGTAATCCGTATTTGAT (site CCAGGTACTAT) | 0.00235 |
| GTTAGAACATGGACCGGTTTTCCCGGTAATCCGTATTTGGC (site TTTAGAACTGC) | 0 |
| GGCAAGACATGGACCGGTTTTCCCGGTAATCCGTATTTGCA (site GGCAAGACTTG) | 2.62 |
| GTCGAATCATGGACCGGTTTTCCCGGTAATCCGTATTTGTT (site GTCGAATCTAA) | 2.52 |
| GTATACACATGGACCGGTTTTCCCGGTAATCCGTATTTGTA (site GTATCCACTTA) | 0 |
| CCGCGTACATGGACCGGTTTTCCCGGTAATCCGTATTTGTT (site CCGCGTACTAA) | 0.0381 |
| CTTAAAGCATGGACCGGTTTTCCCGGTAATCCGTATTTGAT (site CTTAAAGCTAT) | 1.08 |

| Sequence | recombinant UMI read abundance (log10) |
| --- | --- |
| CCGTTACCATGGACCGGTTTTCCCGGTAATCCGTATTTGTG (site CCGTTATCTCA) | 0 |
| GGTATGTCATGGACCGGTTTTCCCGGTAATCCGTATTTGTT (site GGTAGGTCTAA) | 0.00327 |
| TTTGCGCCATGGACCGGTTTTCCCGGTAATCCGTATTTGCT (site TTTGCGACTAG) | 0.0112 |
| GGTTCCGCATGGACCGGTTTTCCCGGTAATCCGTATTTGAA (site GGTTCCGCTTT) | 0 |
| TGCGGACCATGGACCGGTTTTCCCGGTAATCCGTATTTGCT (site TGCGGACCTAG) | 0.00621 |
| GCGTACCCATGGACCGGTTTTCCCGGTAATCCGTATTTGAG (site GCGTACCCTCT) | 0.023 |
| GGGCCACCATGGACCGGTTTTCCCGGTAATCCGTATTTGCA (site GGGTCACCTTG) | 0.00812 |
| ATTTATACATGGACCGGTTTTCCCGGTAATCCGTATTTGAC (site ATTTATACTGT) | 0.544 |
| ACATCCACATGGACCGGTTTTCCCGGTAATCCGTATTTGTG (site ACATCCACTCA) | 0.309 |
| ATCCAAGCATGGACCGGTTTTCCCGGTAATCCGTATTTGTG (site ATCCAAGCTCT) | 0.581 |
| GGGCCACCATGGACCGGTTTTCCCGGTAATCCGTATTTGCA (site GGGGCACCTTG) | 0 |
| CGTTCGACATGGACCGGTTTTCCCGGTAATCCGTATTTGAG (site CGTTCGACTCT) | 0.635 |
| CGGAATCCATGGACCGGTTTTCCCGGTAATCCGTATTTGTT (site CCGAATCCTAG) | 0 |
| ACTCGCCCATGGACCGGTTTTCCCGGTAATCCGTATTTGTT (site ACTCGCCCTAA) | 1.08 |
| ATACTATCATGGACCGGTTTTCCCGGTAATCCGTATTTGCA (site ACAGTATCTTG) | 1.72 |
| CTGTACACATGGACCGGTTTTCCCGGTAATCCGTATTTGCT (site CTGTACACTAG) | 2.51 |
| ATCCGCTCATGGACCGGTTTTCCCGGTAATCCGTATTTGCG (site ATCCGCTCTCG) | 1.19 |
| CGTTTGGCATGGACCGGTTTTCCCGGTAATCCGTATTTGCT (site CGATTGGCTAG) | 0 |
| GAATGGCCATGGACCGGTTTTCCCGGTAATCCGTATTTGCA (site GAATGTCCTTG) | 0 |
| CGCCGTACATGGACCGGTTTTCCCGGTAATCCGTATTTGCT (site CGCCGTACTAT) | 0.0196 |
| CACTCCTCATGGACCGGTTTTCCCGGTAATCCGTATTTGCC (site CACTCCTCTGC) | 0.0424 |
| TAATGAGCATGGACCGGTTTTCCCGGTAATCCGTATTTGGG (site TGATGAGCTCC) | 0.00873 |
| GGAGTGGCATGGACCGGTTTTCCCGGTAATCCGTATTTGTT (site GGAGTGGCTAA) | 1.06 |
| TCCCGCCCATGGACCGGTTTTCCCGGTAATCCGTATTTGCT (site TCCCGCCCTAG) | 0.00858 |
| TCGTGCACATGGACCGGTTTTCCCGGTAATCCGTATTTGAC (site TCGTGCACTGT) | 1.93 |

| Sequence | recombinant UMI read abundance (log10) |
| --- | --- |
| GAGCTCACATGGACCGGTTTTCCCGGTAATCCGTATTTGGT (site GAGCTCACTAC) | 0.841 |
| ACTCTCTCATGGACCGGTTTTCCCGGTAATCCGTATTTGCA (site ACTCTCTCTTG) | 3.19 |
| CTGCTCACATGGACCGGTTTTCCCGGTAATCCGTATTTGCC (site CTGCTCACTGG) | 2.59 |
| GTTAACGCATGGACCGGTTTTCCCGGTAATCCGTATTTGGA (site GTTAACGCTTC) | 0.944 |
| CCATTTACATGGACCGGTTTTCCCGGTAATCCGTATTTGCT (site CCTTTTACTAG) | 0.00937 |
| CCTAATACATGGACCGGTTTTCCCGGTAATCCGTATTTGTC (site CCTAATACTGA) | 0 |
| GTTACGTCATGGACCGGTTTTCCCGGTAATCCGTATTTGTT (site GTTACGTCTAA) | 0.504 |
| GAGATCACATGGACCGGTTTTCCCGGTAATCCGTATTTGAT (site GAGGTCACTAT) | 0.0122 |
| GGTACGTCATGGACCGGTTTTCCCGGTAATCCGTATTTGTA (site GGTACGTCTAA) | 0.0713 |
| CCCATATCATGGACCGGTTTTCCCGGTAATCCGTATTTGTG (site CCCATATCTAA) | 0.00783 |
| GTTGTGCCATGGACCGGTTTTCCCGGTAATCCGTATTTGGT (site GTTGTACCTAC) | 0.00401 |
| TAGAATACATGGACCGGTTTTCCCGGTAATCCGTATTTGCA (site TAGAATACTTT) | 0 |
| GCACGAACATGGACCGGTTTTCCCGGTAATCCGTATTTGTC (site ACACGAACTGA) | 1.48 |
| GCAAAGCCATGGACCGGTTTTCCCGGTAATCCGTATTTGGG (site GCGAAGCCTCC) | 0.00619 |
| CTCTCTACATGGACCGGTTTTCCCGGTAATCCGTATTTGAG (site CTCCCTACTCT) | 0.00919 |
| TTTAACTCATGGACCGGTTTTCCCGGTAATCCGTATTTGAA (site TTTAACTCTTT) | 0.34 |
| ACTAATGCATGGACCGGTTTTCCCGGTAATCCGTATTTGGT (site ACTATTGCTAC) | 0.568 |
| GCGGTAACATGGACCGGTTTTCCCGGTAATCCGTATTTGAT (site GCGGTAACTAT) | 2.46 |
| GTAGGTGCATGGACCGGTTTTCCCGGTAATCCGTATTTGAC (site GTAGGTACTGT) | 2.25 |
| AGCTCATCATGGACCGGTTTTCCCGGTAATCCGTATTTGGG (site AGCTCACCTCC) | 0.0192 |
| GTTAGAACATGGACCGGTTTTCCCGGTAATCCGTATTTGGC (site GTTAGTACTGC) | 0 |
| GCGAACCCATGGACCGGTTTTCCCGGTAATCCGTATTTGAT (site GCGAACCCTAT) | 0.903 |
| GTTCGTACATGGACCGGTTTTCCCGGTAATCCGTATTTGCA (site GTTCGTACTTG) | 1.64 |
| GAATGGCCATGGACCGGTTTTCCCGGTAATCCGTATTTGCA (site GAATGGCCTTG) | 0 |
| CCGGTAGCATGGACCGGTTTTCCCGGTAATCCGTATTTGTG (site CCGATAGCTCA) | 0 |
